{"source": "paper PMC8222713", "about": "“Variation of Two S3b Residues in KV4.1–4.3 Channels Underlies Their Different Modulations by Spider Toxin κ-LhTx-1” (Frontiers in Pharmacology, 2021)", "key": {"KV4.3/T277P mutant": {"system": "KV4.3/T277P mutant", "assay": "Whole-cell patch clamp, KV4.3/T277P in CHO-K1 cells", "format": "cell-based, rat", "protocol": "(§1) The cDNA of hKV1.1, hKV1.3, rKV1.4, hKV1.5, rKV2.1, hKV3.1–3.4, mKV4.1, rKV4.2, and rKV4.3 were subcloned in the eukaryotic expression vector pCDNA3.1 or pCMV-blank. Channel mutants were made by a site-directed mutation method. Briefly, a pair of oppositely directed primers with 15 bp overlap at their 5′ ends and the designed mutation site were used to amplify the parental channel plasmid, then the PCR mix was treated with DpnI to remove the template. 10 μL digestion mix was directly used to transform 100 μL DH5α chemical competent cells. The correct mutation made by this procedure was finally confirmed by DNA sequencing. CHO-K1 cells (ATCC® CCL-61™) were grown in DMEM-F12 mixed medium (1:1) supplemented with 10% FBS and maintained in standard conditions (saturated humidity, 37°C, 5% CO2). Channel plasmid was co-transfected with pEGFP-N1 (encodes the green fluoresence protein) into CHO-K1 cells using lipofectamine 2000 following the manufacturer’s instructions. 4–6 h after transfection, cells were seeded onto poly-lysine (PLL) coated coverslips, and 24–36 h later, transfected cells were ready for patch-clamp analysis. It should be note that KV4.2 and its mutants were also co-expressed with hKChIP1 to promote their functional expressions.\n(§2) Whole-cell patch clamp recording was performed in an electrophysiology platform equipped with MultiClamp 700B amplifier and Axon Digidata 1550 AD/DA convertor (Axon Instruments, Irvine, CA, United States). Data were acquired using the pClamp software (Axon Instruments, Irvine, CA, United States). All experiments were performed at room temperature. The bath solution contains (in mM): 140 NaCl, 5 KCl, 1 MgCl2, 2 CaCl2, 10 glucose, and 10 HEPES (pH = 7.3). The pipette solution contains (in mM): 140 KCl, 2.5 MgCl2, 11 EGTA, and 10 HEPES (pH = 7.3). Series resistance was kept below 10 MΩ and compensated to 80%. The concentration–response curves were fitted by a Hill logistic equation to estimate the potency (IC50) of the toxin. The whole cell conductance (G) at each depolarizing voltage (V) was determined using the equation: G = I/(V−Vrev), where I and Vrev represents the current amplitude and the reversal potential, respectively. In the present study, Vrev for K^+ current is determined to be −85.61 mV using the Nernst equation. G-V curve was obtained by plotting the normalized G as a function of V and fitted by the Boltzmann equation: y = 1/{1 + exp [(Va−V)/K]}, in which Va, V, and K represents half-maximum activation voltage, test voltage and slope factor, respectively. The steady-state fast inactivation of KV4 channels was measured using a classical two-pulses protocol: cell was held at −120 mV, and a train of conditional voltages (−120–40 mV, in 10 mV increment, 1,000 ms) were applied to induce channel inactivation, followed by a +60 mV test pulse (300 ms) to assess the proportion of non-inactivated channels; the sweep interval was set to 10 s. Currents at the test pulse (I) were normalized to the maximum value (Imax) and plotted as a function of the conditional voltage (V), the curve was fitted by the Boltzmann equation: I/Imax = A + (1−A)/{1 + exp [(V−Vh)/K]}, where Vh is the half-maximum inactivation voltage, A represents the minimum channel availability, and K is the slope factor. Gating currents of KV4.1–4.3 channels were measured as previously reported ([Tilley et al., 2019]). Briefly, the ionic pore currents were abolished by replacing K^+ with NMDG^+ in the pipette solution, and 10 µM Cs^+ was present in the bath solution to occupy the selectivity filter of KV channels to prevent decay of the gating currents during recording.\n(§3) Data were presented as MEAN ± SEM, n represents the number of separate experimental cells. Data were analyzed using the software Clampfit 10.5 (Axon Instruments, Irvine, CA, United States), Graphpad Prism 5.01 (GraphPad Software, La Jolla, CA, United States) and Excel 2010 (Microsoft Corporation, Redmond, WA, United States). […]"}, "KV4.1/F280V mutant": {"system": "KV4.1/F280V mutant", "assay": "Whole-cell patch clamp, KV4.1/F280V in CHO-K1 cells", "format": "cell-based, mouse", "details": "+30 mV, n = 5", "protocol": "(§4) The cDNA of hKV1.1, hKV1.3, rKV1.4, hKV1.5, rKV2.1, hKV3.1–3.4, mKV4.1, rKV4.2, and rKV4.3 were subcloned in the eukaryotic expression vector pCDNA3.1 or pCMV-blank. Channel mutants were made by a site-directed mutation method. Briefly, a pair of oppositely directed primers with 15 bp overlap at their 5′ ends and the designed mutation site were used to amplify the parental channel plasmid, then the PCR mix was treated with DpnI to remove the template. 10 μL digestion mix was directly used to transform 100 μL DH5α chemical competent cells. The correct mutation made by this procedure was finally confirmed by DNA sequencing. […] 4–6 h after transfection, cells were seeded onto poly-lysine (PLL) coated coverslips, and 24–36 h later, transfected cells were ready for patch-clamp analysis. […]\n(§5) Whole-cell patch clamp recording was performed in an electrophysiology platform equipped with MultiClamp 700B amplifier and Axon Digidata 1550 AD/DA convertor (Axon Instruments, Irvine, CA, United States). […] The whole cell conductance (G) at each depolarizing voltage (V) was determined using the equation: G = I/(V−Vrev), where I and Vrev represents the current amplitude and the reversal potential, respectively. In the present study, Vrev for K^+ current is determined to be −85.61 mV using the Nernst equation. […] Gating currents of KV4.1–4.3 channels were measured as previously reported ([Tilley et al., 2019]). […]"}, "KV4.2/277LV/AA mutant": {"system": "KV4.2/277LV/AA mutant", "assay": "Whole-cell patch clamp, KV4.2/277LV/AA (with hKChIP1) in CHO-K1 cells", "format": "cell-based, rat", "details": "KV4.2/277LV/AA at Va depolarizing voltage, n = 5–7", "protocol": "as §4, §5"}, "KV4.1/V281M mutant": {"system": "KV4.1/V281M mutant", "assay": "Whole-cell patch clamp, KV4.1/V281M in CHO-K1 cells", "format": "cell-based, mouse", "details": "+30 mV, n = 5", "protocol": "as §4, §5"}, "KV4.1 channel (mKV4.1)": {"target": "T1, KV4.1 channel (mKV4.1) (Mus musculus, UniProt Q03719)", "T1 construct": "expressed in transfected cells; host or cells: CHO-K1 (transient, co-transfected with pEGFP-N1)", "T1 sequence (Q03719 1-651)": "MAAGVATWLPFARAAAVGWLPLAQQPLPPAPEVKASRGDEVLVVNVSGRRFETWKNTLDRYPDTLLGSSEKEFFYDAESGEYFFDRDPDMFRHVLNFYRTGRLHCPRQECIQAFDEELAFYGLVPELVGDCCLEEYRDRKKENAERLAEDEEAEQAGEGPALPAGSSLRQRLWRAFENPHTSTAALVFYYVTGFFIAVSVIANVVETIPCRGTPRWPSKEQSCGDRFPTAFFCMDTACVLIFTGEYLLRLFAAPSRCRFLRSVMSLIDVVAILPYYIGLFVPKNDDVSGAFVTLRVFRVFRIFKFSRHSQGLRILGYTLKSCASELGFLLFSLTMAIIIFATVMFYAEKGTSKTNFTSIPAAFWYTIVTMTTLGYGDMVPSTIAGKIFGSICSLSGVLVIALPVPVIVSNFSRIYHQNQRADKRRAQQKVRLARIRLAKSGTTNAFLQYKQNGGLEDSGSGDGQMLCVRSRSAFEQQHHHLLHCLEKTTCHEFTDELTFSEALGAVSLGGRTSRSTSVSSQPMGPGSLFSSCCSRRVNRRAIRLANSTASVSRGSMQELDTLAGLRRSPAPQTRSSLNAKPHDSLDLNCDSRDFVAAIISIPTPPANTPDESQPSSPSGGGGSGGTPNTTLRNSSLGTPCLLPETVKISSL", "assay": "Whole-cell patch clamp, KV4.1 in CHO-K1 cells", "format": "cell-based", "protocol": "as §1, §2, §3"}, "[1]": {"system": "KV4.1 channel gating currents", "assay": "Gating current recording, KV4.1", "format": "cell-based, mouse", "details": "KV4.1, n = 5–6", "protocol": "as §4, §5"}, "[2]": {"details": "10 μM κ-LhTx-1, G-V, mean ± SEM, n = 6"}, "[3]": {"details": "10 μM κ-LhTx-1, two-pulse protocol, mean ± SEM, n = 6"}, "[4]": {"details": "10 μM κ-LhTx-1, KV4.1, two-pulse protocol, mean ± SEM, n = 5"}}, "note": "Where a SMILES comes first, the peptide text is derived from it. Bridges are numbered along the chain shown (N, C = ends).", "data": [{"smiles": "CC[C@H](C)[C@@H]1NC(=O)[C@H](CCC(N)=O)NC(=O)[C@@H]2CSSC[C@@H]3NC(=O)[C@H](CC(C)C)NC(=O)[C@H](CC(N)=O)NC(=O)[C@H](CCSC)NC(=O)[C@H](Cc4c[nH]c5ccccc45)NC(=O)[C@H](CO)NC(=O)[C@H](C)NC(=O)[C@@H](NC(=O)[C@H](CCC(=O)O)NC(=O)[C@H](CCC(N)=O)NC(=O)[C@H](C)NC(=O)[C@H](CC(=O)O)NC(=O)[C@@H](N)CCC(=O)O)CSSC[C@H](NC(=O)[C@H](CSSC[C@@H](C(=O)N[C@@H](CCCCN)C(=O)N[C@@H](Cc4ccc(O)cc4)C(=O)N[C@@H](CCCCN)C(=O)N[C@@H](CC(C)C)C(N)=O)NC(=O)[C@H](Cc4c[nH]c5ccccc45)NC1=O)NC(=O)[C@H](CCCCN)NC(=O)[C@H](CCCCN)NC(=O)[C@H](CCC(=O)O)NC(=O)CNC3=O)C(=O)N[C@@H](CCC(=O)O)C(=O)NCC(=O)N[C@@H](Cc1ccc(O)cc1)C(=O)N[C@@H](C(C)C)C(=O)N2", "note": "[κ-LhTx-1] (H-EDAQECASWMNLCGEKKCCEGYVCQIWCKYKL-NH2; disulfide 6-19, 13-24, 18-28 (inferred); N-terminus and C-terminus assumed)", "values": [{"measurement": "Va (steady-state activation)", "setting": "KV4.3/T277P mutant; [2]", "value": "49.17 ± 0.88", "unit": "mV"}, {"measurement": "k, slope factor (steady-state activation)", "setting": "KV4.3/T277P mutant; [2]", "value": "22.21 ± 1.64", "unit": "mV"}, {"measurement": "Vh (steady-state inactivation)", "setting": "KV4.3/T277P mutant; [3]", "value": "-35.46 ± 1.68", "unit": "mV"}, {"measurement": "k, slope factor (steady-state inactivation)", "setting": "KV4.3/T277P mutant; [3]", "value": "8.50 ± 0.42", "unit": "mV"}, {"measurement": "inhi%(min) vs wild-type KV4.3", "setting": "KV4.3/T277P mutant; 10 μM, +100 mV", "value": "significantly elevated inhi%(min) value"}, {"measurement": "∆Va (steady-state activation)", "setting": "KV4.3/T277P mutant; Va shift by 10 μM κ-LhTx-1 vs control, mean ± SEM", "value": "40.47 ± 2.79", "unit": "mV"}, {"measurement": "∆Vh (steady-state inactivation)", "setting": "KV4.3/T277P mutant; Vh shift by 10 μM κ-LhTx-1 vs control, mean ± SEM", "value": "11.63 ± 2.17", "unit": "mV"}, {"measurement": "potency vs wild-type KV4.1", "setting": "KV4.1/F280V mutant", "value": "only slightly reduced κ-LhTx-1 potency"}, {"measurement": "effect of mutation on toxin inhibition", "setting": "KV4.2/277LV/AA mutant", "value": "profoundly weakened the effect"}, {"measurement": "potency vs wild-type KV4.1", "setting": "KV4.1/V281M mutant", "value": "only slightly reduced κ-LhTx-1 potency"}, {"measurement": "Va (steady-state activation)", "setting": "KV4.1 channel (mKV4.1); 10 μM κ-LhTx-1, KV4.1, Boltzmann fit of G-V curve, mean ± SEM, n = 5", "value": "95.20 ± 1.68", "unit": "mV"}, {"measurement": "k, slope factor (steady-state activation)", "setting": "KV4.1 channel (mKV4.1); 10 μM κ-LhTx-1, KV4.1, G-V, mean ± SEM, n = 5", "value": "16.14 ± 1.78", "unit": "mV"}, {"measurement": "Vh (steady-state inactivation)", "setting": "KV4.1 channel (mKV4.1); [4]", "value": "-32.48 ± 3.44", "unit": "mV"}, {"measurement": "k, slope factor (steady-state inactivation)", "setting": "KV4.1 channel (mKV4.1); [4]", "value": "22.88 ± 0.19", "unit": "mV"}, {"measurement": "reversibility of inhibition", "setting": "KV4.1 channel (mKV4.1); KV4.1", "value": "in a reversible manner"}, {"measurement": "voltage-dependence of inhibition", "setting": "KV4.1 channel (mKV4.1); KV4.1, 10 µM, inhibition ratio at each depolarizing voltage, n = 5–8", "value": "affected by voltage to a much less extent"}, {"measurement": "I-V: current inhibition below +60 mV", "setting": "KV4.1 channel (mKV4.1); KV4.1, 10 µM, n = 5–8", "value": "fully inhibited the currents at voltages below +60 mV"}, {"measurement": "I-V: reopening of toxin-bound channels", "setting": "KV4.1 channel (mKV4.1); KV4.1, 10 µM, strong depolarization, n = 5–8", "value": "only depolarizations stronger than +70 mV could partially reopen the toxin-bound channels"}, {"measurement": "maximum inhibition", "setting": "KV4.1 channel (mKV4.1); KV4.1, saturating dose 10 μM, +30 mV", "value": "fully inhibit"}, {"measurement": "current inhibition at Va", "setting": "KV4.1 channel (mKV4.1); KV4.1 at Va depolarizing voltage", "value": "almost fully inhibited"}, {"measurement": "∆Va (steady-state activation)", "setting": "KV4.1 channel (mKV4.1); Va shift by 10 μM κ-LhTx-1 vs control, KV4.1, mean ± SEM", "value": "98.28 ± 2.66", "unit": "mV"}, {"measurement": "∆Vh (steady-state inactivation)", "setting": "KV4.1 channel (mKV4.1); Vh shift by 10 μM κ-LhTx-1 vs control, KV4.1, mean ± SEM", "value": "29.27 ± 2.05", "unit": "mV"}, {"measurement": "gating current inhibition", "setting": "[1]", "value": "inhibited the gating currents"}]}]}
